Laboratory results: US10081629B2, “Amide derivatives and pharmaceutically acceptable salts thereof, preparation method thereof and medicinal application thereof” (Shanghai Hengrui Pharmaceutical Co., Ltd., priority 2014, dated 2018)

What was measured:
[1] = target: human mPGES1 (Homo sapiens (Human), UniProt O14684); experiment: Inhibition activity for human mPGES1 (enzyme assay, PGE2 HTRF); format: biochemical; settings: membrane protein from HEK-293 F transfected with human mPGES1
Protocol: The method described here is used for determining the inhibition activity of the present compounds for human mPGES1.
• 1. PGE2 Assay kit (Cisbio, #62P2APEB) • 2. Prostaglandin H2 (Sigma, #P7867-1MG) • 3. FlexStation3 microplate reader. II. Experimental Procedure • 1. Obtaining the membrane proteins of mPGES1 enzyme
The cell density of HEK-293 F was grown to 6×10^5 per milliliter and was transferred with the plasmid containing human mPGES1 gene by transfection reagent PEI the next day. The cells were continuously cultured for 72 hours at 37° C. with shaking. After centrifuging at 1100 g for 5 minutes, the cells were harvested. After ultrasonication in an ice bath and centrifugation at 5000 g for 10 minutes, the supernatant was obtained. The supernatant was centrifuged at 100000 g for 1 hour to obtain a precipitate. The precipitate was resuspended with storage buffer containing 10% glycerinum, subpackaged and frozen rapidly under liquid nitrogen, and stored at −80° C. • 2. mPGES1 enzyme assay
mPGES1 was diluted with assay buffer and added into plate at 49 μL/well supplemented with 1 μL of compound (the final concentration of each compound at seven gradient concentrations was 10000 nM, 1000 nM, 100 nM, 10 nM, 1 nM, 0.1 nM and 0.01 nM). […] Then, each well was added with 53.8 μL of 6 mg/mL SnCl2 to quench the reaction. The sample was diluted with dilute buffer at 1:400. 10 μl of diluted sample, 5 μL PGE2-d2 and 5 μL anti-PGE2 Cryptate were added to a black 384-well plate, and incubated at 4° C. overnight. HTRF was determined using Flexstation, and the IC50 of the compounds was obtained by data processing software.
The inhibition activity of the present compounds on mPGES1 was tested by the assay described above.

[2] = Pharmacokinetics assay in rats; format: in vivo; settings: both sexes, Sprague-Dawley, rat, plasma, po, SD rats, intragastric, 5 mg/kg; for Vd/F: read-out: Apparent Distribution Volume Vz/F; for AUC: read-out: Area Under Curve AUC; for CL/F: read-out: Clearance CLz/F; for half-life: read-out: Half-Life T½ (converted); for MRT: read-out: Mean Residence Time MRT; for Cmax: read-out: Plasma Conc. Cmax
Protocol: Rats were used as test animals. The drug concentration in plasma at different time points was determined by LC/MS/MS after administration of the compounds of Example 8, Example 11, Example 14, Example 17, Example 20, Example 27, Example 33, Example 35, Example 36, Example 37 and Example 48 to rats. The pharmacokinetic behavior of the present compounds was studied and evaluated in rats.
Forty four (44) healthy adult Sprague-Dawley (SD) rats, half male and half female, which were purchased from SINO-BRITSH SIPPR/BK LAB. ANIMAL LTD., CO, with Certificate No.: SCXK (Shanghai) 2008-0016, were divided into 11 groups, with 4 rats in each group.
The appropriate amount of test compounds was weighed, and mixed with 25 μL Tween 80 and Labrasol to prepare a 0.6 mg/mL suspension by ultrasonication.
After an overnight fast, 44 SD rats, half male and half female, were divided into 11 groups, and administered intragastrically at a dose of 5.0 mg/kg and an administration volume of 10 mL/kg.
Blood (0.1 mL) was sampled from the orbital sinus before administration and 0.5 h, 1.0 h, 2.0 h, 4.0 h, 6.0 h, 8.0 h, 11.0 h, and 24.0 h after administration. The samples were stored in EDTA anticoagulation tubes, and centrifuged for 5 minutes at 3,500 rpm to separate the blood plasma. The plasma samples were stored at −20° C. The rats were fed 2 hours after administration.
The plasma concentration of the test compounds in rat after intragastric administration was determined by LC-MS/MS. The linearity of the method is 5.00-2000 ng/mL and 1.00-2000 ng/ml, and the minimum of quantification is 5.00 ng/mL and 1.00 ng/mL.
Plasma samples were analyzed after pretreatment by protein precipitation.

[3] = tested on: secretion of PGE2 by A549 cells stimulated with IL-1β; experiment: Inhibition of the secretion of PGE2 by A549 cells stimulated with IL-1β; format: cell-based; settings: Homo sapiens, IL-1β 0.2 ng/mL
From the text: The method described here was used for determining the inhibition activity of the present compounds on the secretion of PGE2 by A549 cells stimulated with IL-1β.
• 1. PGE2 Assay kit (Cisbio, #62P2APEB) • 2. IL-1β (Peprotech, # AF-200-01B) • 3. Cell line: A549 (ATCC: CCL-185) • 4. FlexStation3 microplate reader. II. Experimental Procedure
On the first day, A549 cells were inoculated in a 96-well plate at 40000/well. On the second day, the culture medium in the 96-well plate was removed and then added with 90 μL of compound diluted with culture medium (the concentration of each compound at seven gradient concentrations was 11111 nM, […], 1.11 nM, 0.11 nM and 0.011 nM). The cells were incubated for 30 minutes at 37° C. in an incubator, and then added with IL-1β to a final concentration of 0.2 ng/mL. Then, the cells were incubated for another 24 hours at 37° C. On the third day, 10 μl of supernatant, 5 μL of PGE2-d2 and 5 μL of anti-PGE2 Cryptate were added into a black 384-well plate, and then incubated at 4° C. overnight. HTRF was determined using Flexstation, and the IC50 of the compounds was obtained by data processing software.
The inhibition activity of the present compounds on the secretion of PGE2 by A549 cells stimulated with IL-1β was determined by the assay described above.

Chain of human mPGES1 (O14684 whole entry): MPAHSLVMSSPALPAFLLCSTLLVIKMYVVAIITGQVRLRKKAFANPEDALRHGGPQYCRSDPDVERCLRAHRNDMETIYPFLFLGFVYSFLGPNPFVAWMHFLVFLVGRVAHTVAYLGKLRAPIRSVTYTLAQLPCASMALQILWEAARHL

Compound | IC50 [1] [nM] | IC50 ([3]; A549, 24 hours) [nM] | other results
CCn1c(-c2ccc(F)cc2)cc2cc(NC(=O)c3cc(CNC(=O)C(C)(C)C)ccc3Cl)ccc21 [Example 8, 2-Chloro-N-(1-ethyl-2-(4-fluorophenyl)-1H-indol-5-yl)5-((2,2-dimethylpropanoylamino)methyl)-benzamide] | 3.88 |  | Vd/F [2]: 10.5 ± 4.66 L/kg; AUC [2]: 2900 ± 1340 ng·h/mL; CL/F [2]: 32.7 ± 13.1 mL/min/kg; half-life [2]: 4.69 ± 3.74 h; MRT [2]: 8.21 ± 4.88 h; Cmax [2]: 346 ± 155 ng/mL; IC50 ([3]; A549, 24 h): 19.1 nM
Cn1c(-c2ccc(F)cc2)cc2cc(NC(=O)c3cc(CNC(=O)C(C)(C)C)ccc3Cl)ccc21 [Example 11, 2-chloro-N-(2-(4-fluorophenyl)-1-methyl-1H-indol-5-yl)-5-((2,2-dimethylpropanoylamino)methyl)benzamide] | 5.14 | 16.3 | Vd/F [2]: 5.83 ± 1.14 L/kg; AUC [2]: 7230 ± 5320 ng·h/mL; CL/F [2]: 19.2 ± 14.1 mL/min/kg; half-life [2]: 5.27 ± 3.25 h; MRT [2]: 10.4 ± 5.1 h; Cmax [2]: 572 ± 167 ng/mL
Cn1c(-c2ccc(Cl)cc2)cc2cc(NC(=O)c3cc(CNC(=O)C(C)(C)F)cnc3C(F)F)ccc21 [Example 14, N-(2-(4-Chlorophenyl)-1-methyl-1H-indol-5-yl)-2-(difluoromethyl)-5-(((2-fluoro-2-methyl-propanoyl)amino)methyl)nicotinamide] | 4.59 |  | Vd/F [2]: 17.9 ± 3.12 L/kg; AUC [2]: 1790 ± 984 ng·h/mL; CL/F [2]: 56.7 ± 25.4 mL/min/kg; half-life [2]: 4.15 ± 1.59 h; MRT [2]: 9.25 ± 2.24 h; Cmax [2]: 150 ± 56 ng/mL; IC50 ([3]; A549, 24 h): 20.5 nM
CC(C)C(=O)NCc1cnc(C(F)F)c(C(=O)Nc2ccc3oc(-c4ccc(C(F)(F)F)cc4)nc3c2)c1 [Example 38, 2-(Difluoromethyl)-5-((2-methylpropanoylamino)methyl)-N-(2-(4-(trifluoromethyl)phenyl)benzo[d]oxazol-5-yl)nicotinamide] | 5.43 | 42.9 | 
CC(C)C(=O)NCc1cnc(C(F)F)c(C(=O)Nc2ccc3oc(-c4ccc(C(F)(F)F)cc4)cc3c2)c1 [Example 39, 2-(Difluoromethyl)-5-((2-methylpropanoylamino)methyl)-N-(2-(4-(trifluoromethyl)phenyl)benzofuran-5-yl)nicotinamide] | 3.68 | 30.5 | 
CC(C)C(=O)NCc1cnc(C(F)F)c(C(=O)Nc2ccc3c(c2)CN(c2ccc(C(F)(F)F)cc2)C3)c1 [Example 40, 2-(Difluoromethyl)-5-((2-methylpropanoylamino)methyl)-N-(2-(4-(trifluoromethyl)phenyl)isoindolin-5-yl)nicotinamide] | 22.4 | 16.9 | 
CC1(C(=O)NCc2cnc(C(F)F)c(C(=O)Nc3ccc4oc(-c5ccc(C(F)(F)F)cc5)nc4c3)c2)CC1 [Example 43, 2-(Difluoromethyl)-5-(((1-methylcyclopropanecarbonyl)amino)methyl)-N-(2-(4-(trifluoromethyl)phenyl)benzo[d]oxazol-5-yl)nicotinamide] | 16 | 58.2 | 
CC(C)C(=O)NCc1cnc(C(F)F)c(C(=O)Nc2ccc3oc(-c4ccc(Cl)cc4)nc3c2)c1 [Example 45, N-(2-(4-Chlorophenyl)benzo[d]oxazol-5-yl)-2-(difluoromethyl)-5-((2-methylpropanoylamino)methyl)nicotinamide] | 49.4 | 25.9 | 
CC(C)(F)C(=O)NCc1cnc(C(F)F)c(C(=O)Nc2ccc3c(c2)cc(-c2ccc(Cl)cc2)n3[C@H]2CCOC2)c1 [Example 46, (S)-N-(2-(4-Chlorophenyl)-1-(tetrahydrofuran-3-yl)-1H-indol-5-yl)-2-(difluoromethyl)-5-(((2-fluoro-2-methyl-propanoyl)amino)methyl)nicotinamide] | 2.71 | 24.7 | 
CC(C)(F)C(=O)NCc1cnc(C(F)F)c(C(=O)Nc2ccc3c(c2)cc(-c2ccc(Cl)cc2)n3[C@@H]2CCOC2)c1 [Example 47, (R)-N-(2-(4-Chlorophenyl)-1-(tetrahydrofuran-3-yl)-1H-indol-5-yl)-2-(difluoromethyl)-5-(((2-fluoro-2-methyl-propanoyl)amino)methyl)nicotinamide] | 5.72 | 18.9 | 
CC(C)(F)C(=O)NCc1cnc(C(F)F)c(C(=O)Nc2ccc3c(c2)CN(c2cccc(C(F)(F)F)c2)C3)c1 [Example 49, 2-(Difluoromethyl)-5-(((2-fluoro-2-methyl-propanoyl)amino)methyl)-N-(2-(3-(trifluoromethyl)phenyl)isoindolin-5-yl)nicotinamide] | 8.29 | 24 | 
CC(C)C(=O)NCc1cnc(C(F)F)c(C(=O)Nc2ccc3nc(-c4ccc(C(F)(F)F)cc4)sc3c2)c1 [Example 54, 2-(Difluoromethyl)-5-((2-methylpropanoylamino)methyl)-N-(2-(4-(trifluoromethyl)phenyl)benzo[d]thiazol-6-yl)nicotinamide] | 47.1 | 58.5 | 
CC(C)(F)C(=O)NCc1cnc(C(F)F)c(C(=O)Nc2ccc3oc(-c4cccc(C(F)(F)F)c4)nc3c2)c1 [Example 56, 2-(Difluoromethyl)-5-(((2-fluoro-2-methyl-propanoyl)amino)methyl)-N-(2-(3-(trifluoromethyl)phenyl)benzo[d]oxazol-5-yl)nicotinamide] | 7.74 | 27.5 | 
CC(C)(C)C(=O)NCc1ccc(Cl)c(C(=O)Nc2ccc3c(c2)C(=O)N(c2ccc(Cl)cc2)C3)c1 [Example 57, 2-Chloro-N-(2-(4-chlorophenyl)-3-oxo-isoindolin-5-yl)-5-((2,2-dimethylpropanoylamino)methyl)benzamide] | 6.75 | 6.22 | 
CC(C)(C)C(=O)NCc1ccc(Cl)c(C(=O)Nc2ccc3c(c2)C(=O)N(c2ccc(C(F)(F)F)cc2)C3)c1 [Example 58] | 8.51 | 2.18 | 
CC(C)(F)C(=O)NCc1cnc(C(F)F)c(C(=O)Nc2ccc3c(c2)C(=O)N(c2cccc(C(F)(F)F)c2)C3)c1 [Example 59, 2-(Difluoromethyl)-5-(((2-fluoro-2-methyl-propanoyl)amino)methyl)-N-(3-oxo-2-(3-(trifluoromethyl)phenyl)isoindolin-5-yl)nicotinamide] | 1.18 | 20.5 | 
